# From patent publication US20190375708A1 (VenatoRx Pharmaceuticals, Inc., priority 2018, published 2019)
# Tests used:
# [1] = In vitro cytotoxicity assay (MTT cell viability) in HepG2 cells; type: cell-based, human; details: human
# Method in brief: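 Parental HepG2 cells in EMEM + 10% FBS were exposed to compounds (8 half-log dilutions, 30 μM to 1.0 nM) for 7 days at 37 °C, 5% CO2. MTT was then added for 3-4 h, formazan dissolved in DMSO and absorbance read at 492 nm; CC50 came from 4-parameter fits against vehicle controls.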
# [2] = system: HBV replication in HepAD38 cells; assay: Anti-HBV replication assay in HepAD38 cells (QPCR of extracellular HBV DNA); type: cell-based, HBV (genotype D, serotype ayw); details: Hepatitis B virus, 168 h, 7 days incubation, extracellular HBV DNA by QPCR, read-out: Anti-HBV EC50
# Method in brief: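 Compounds (1 log10 serial dilutions, […]) were left 7 days on tetracycline-free HepAD38 cultures, a HepG2 line with tet-controlled HBV genotype D. EC50 came from 4-parameter regression of percent inhibition versus vehicle, using supernatant HBV DNA copies/mL measured by QPCR.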
SMILES,CC50 at 7 days [1] [µM],EC50 [2] [nM]
"Cc1cc(NC(=O)c2c(C)c(C(=O)C(=O)N[C@@H]3CCC[C@H]3O)n(CCF)c2C)ccc1F [Example 195, N-(4-fluoro-3-methylphenyl)-1-(2-fluoroethyl)-5-(2-(((1R,2R)-2-hydroxycyclopentyl)amino)-2-oxoacetyl)-2,4-dimethyl-1H-pyrrole-3-carboxamide]",> 30,< 50
"O=C(N[C@H]1CCC[C@H]1O)C(=O)c1c(Cl)c(C(=O)Nc2ccc(F)c(F)c2)c2n1CCC2 [Example 571, 6-chloro-N-(3,4-difluorophenyl)-5-(2-(((1S,2R)-2-hydroxycyclopentyl)amino)-2-oxoacetyl)-2,3-dihydro-1H-pyrrolizine-7-carboxamide]",> 30,50 to 499
Cc1cc(NC(=O)c2c(Cl)c(C(=O)C(=O)NC(C)(C)C)n3c2CCCC3)ccc1F [Example 489],> 30,< 50
"Cc1cc(NC(=O)c2c(C)c(C(=O)C(=O)NCCN3CCSCC3)n(C)c2C)ccc1F [Example 328, N-(4-fluoro-3-methylphenyl)-1,2,4-trimethyl-5-(2-oxo-2-((2-thiomorpholinoethyl)amino)acetyl)-1H-pyrrole-3-carboxamide]",> 30,50 to 499
"Cc1cc(NC(=O)c2c(Cl)c(C(=O)C(=O)N[C@H]3CCC[C@H]3O)n3c2CCC3)ccc1F [Example 547, 6-chloro-N-(4-fluoro-3-methylphenyl)-5-(2-(((1S,2R)-2-hydroxycyclopentyl)amino)-2-oxoacetyl)-2,3-dihydro-1H-pyrrolizine-7-carboxamide]",5 to 30,50 to 499
"Cc1c(C(=O)Nc2ccc(F)nc2)c(C)n(C)c1C(=O)C(=O)NC(C)(C)CN1CCOCC1 [Example 350, N-(6-fluoropyridin-3-yl)-1,2,4-trimethyl-5-(2-((2-methyl-1-morpholinopropan-2-yl)amino)-2-oxoacetyl)-1H-pyrrole-3-carboxamide]",> 30,500 to 1000
"Cc1cc(NC(=O)c2c(C)c(C(=O)C(=O)NCCc3nnc[nH]3)n(C)c2C)ccc1F [Example 348, 5-(2-((2-(4H-1,2,4-triazol-3-yl)ethyl)amino)-2-oxoacetyl)-N-(4-fluoro-3-methylphenyl)-1,2,4-trimethyl-1H-pyrrole-3-carboxamide]",> 30,< 50
"Cc1cc(NC(=O)c2c(C)c(C(=O)C(=O)N[C@H]3CC[C@@H](O)CC3)n(CCF)c2C)ccc1F [Example 210, N-(4-fluoro-3-methylphenyl)-1-(2-fluoroethyl)-5-(2-(((1s,4s)-4-hydroxycyclohexyl)amino)-2-oxoacetyl)-2,4-dimethyl-1H-pyrrole-3-carboxamide]",> 30,< 50
"Cc1cc(NC(=O)c2c(C)c(C(=O)C(=O)NCCc3c(C)[nH][nH]c3=O)n(C)c2C)ccc1F [Example 650, N-(4-fluoro-3-methylphenyl)-1,2,4-trimethyl-5-(2-((2-(5-methyl-3-oxo-2,3-dihdyro-1H-pyrazol-4-yl)ethyl)amino)-2-oxoacetyl)-1H-pyrrole-3-carboxamide]",> 30,50 to 499
"Cc1cc(NC(=O)c2c(Cl)c(C(=O)C(=O)NC(C)(C)C)n3c2CCC3)ccc1F [Example 539, 5-(2-(tert-butylamino)-2-oxoacetyl)-6-chloro-N-(4-fluoro-3-methylphenyl)-2,3-dihydro-1H-pyrrolizine-7-carboxamide]",5 to 30,< 50
"CC(C)(O)CNC(=O)C(=O)c1c(Cl)c(C(=O)Nc2ccnc(F)c2)c2n1CCCC2 [Example 530, 2-chloro-N-(22-fluoropyridin-4-yl)-3-(22-((2-hydroxy-2-methylpropyl)amino)-2-oxoacetyl)-5,6,7,8-tetrahydroindolizine-1-carboxamide]",> 30,> 1000
"Cc1cc(Cl)cc(NC(=O)c2c(C)c(C(=O)C(=O)N[C@H]3CC[C@@H](O)CC3)n(C)c2C)c1 [Example 685, N-(3-chloro-5-methylphenyl)-5-(2-(((1s,4s)-4-hydroxycyclohexyl)amino)-2-oxoacetyl)-1,2,4-trimethyl-1H-pyrrole-3-carboxamide]",> 30,< 50
"Cc1cc(NC(=O)c2c(C)c(C(=O)C(=O)NC(C)(C)CO)n(CCF)c2C)cnc1F [Example 222, N-(6-fluoro-5-methylpyridin-3-yl)-1-(2-fluoroethyl)-5-(2-((1-hydroxy-2-methylpropan-2-yl)amino)-2-oxoacetyl)-2,4-dimethyl-1H-pyrrole-3-carboxamide]",> 30,> 1000
"Cc1c(C(=O)Nc2ccc(F)c(F)c2)c(C)n(C)c1C(=O)C(=O)Nc1cccnc1 [Example 296, N-(3,4-difluorophenyl)-1,2,4-trimethyl-5-(2-oxo-2-(pyridin-3-ylamino)acetyl)-1H-pyrrole-3-carboxamide]",> 30,< 50
"Cn1cc(C(=O)Nc2ccc(F)c(Cl)c2)cc1C(=O)C(=O)NOC(C)(C)C [Example 21, 5-(2-(tert-butoxyamino)-2-oxoacetyl)-N-(3-chloro-4-fluorophenyl)-1-methyl-1H-pyrrole-3-carboxamide]",> 30,50 to 499
"Cc1cc(NC(=O)c2c(C)c(C(=O)NC(C)(C)CN3CCOCC3)n(C)c2C)ccc1F [Example 349, N4-(4-fluoro-3-methylphenyl)-1,3,5-trimethyl-N2-(2-methyl-1-morpholinopropan-2-yl)-1H-pyrrole-2,4-dicarboxamide]",> 30,> 1000
"Cc1cc(NC(=O)c2c(C)c(C(=O)C(=O)NC3CCc4nc(N)sc4C3)n(C)c2C)cnc1F (stereo in doubt) [Example 138, (S)-5-(2-((2-amino-4,5,6,7-tetrahydrobenzo[d]thiazol-6-yl)amino)-2-oxoacetyl)-N-(6-fluoro-5-methylpyridin-3-yl)-1,2,4-trimethyl-1H-pyrrole-3-carboxamide]",0.5 to 4.99,< 50
"Cc1cc(NC(=O)c2c(C)c(C(=O)C(=O)NC(C)(C)C(N)=O)n(C)c2C)ccc1F [Example 36, 5-(2-((1-amino-2-methyl-1-oxopropan-2-yl)amino)-2-oxoacetyl)-N-(4-fluoro-3-methylphenyl)-1,2,4-trimethyl-1H-pyrrole-3-carboxamide]",> 30,< 50
"Cc1cc(NC(=O)c2c(C)c(C(=O)C(=O)N[C@H]3COC[C@@H]3N3CCOCC3)n(C)c2C)ccc1F [Example 711, N-(4-fluoro-3-methylphenyl)-1,2,4-trimethyl-5-(2-(((3R,4R)-4-morpholinotetrahydrofuran-3-yl)amino)-2-oxoacetyl)-1H-pyrrole-3-carboxamide]",> 30,< 50
"Cc1cc(NC(=O)c2c(C)c(C(=O)C(=O)N[C@@H](C(N)=O)[C@@H](C)O)n(C)c2C)ccc1F [Example 61, 5-(2-(((2R,3R)-1-amino-3-hydroxy-1-oxobutan-2-yl)amino)-2-oxoacetyl)-N-(4-fluoro-3-methylphenyl)-1,2,4-trimethyl-1H-pyrrole-3-carboxamide]",> 30,50 to 499
"O=C(N[C@H]1C[C@H](O)C1)C(=O)c1c(Cl)c(C(=O)Nc2ccc(F)c(Cl)c2)c2n1CCCC2 [Example 531, 2-chloro-N-(3-chloro-4-fluorophenyl)-3-(2-(((1r,3r)-3-hydroxycyclobutyl)amino)-2-oxoacetyl)-5,6,7,8-tetrahydroindolizine-1-carboxamide]",> 30,50 to 499
"COCC(C)(C)NC(=O)C(=O)c1c(C)c(C(=O)Nc2cnc(F)c(C)c2)c(C)n1C [Example 167, N-(6-fluoro-5-methylpyridin-3-yl)-5-(2-((1-methyoxy-2-methylpropan-2-yl)amino)-2-oxoacetyl)-1,2,4-trimethyl-1H-pyrrole-3-carboxamide]",> 30,< 50
"Cc1cc(NC(=O)c2c(C)c(C(=O)C(=O)N[C@@H](C(=O)O)C3CCCCC3)n(C)c2C)ccc1F [Example 69, (R)-2-cyclohexyl-2-(2-(4-((4-fluoro-3-methylphenyl)carbamoyl)-1,3,5-trimethyl-1H-pyrrol-2-yl)-2-oxoacetamido)acetic acid]",> 30,500 to 1000
"Cc1c(C(=O)Nc2ccc(F)c(Cl)c2)c2n(c1C(=O)C(=O)NCC(C)(C)O)CCCC2 [Example 467, N-(3-chloro-4-fluorophenyl)-3-(2-((2-hydroxy-2-methylpropyl)amino)-2-oxoacetyl)-2-methyl-5,6,7,8-tetrahydroindolizine-1-carboxamide]",> 30,500 to 1000
"Cc1cc(NC(=O)c2c(C)c(C(=O)C(=O)N[C@H](C(N)=O)[C@@H](C)O)n(C)c2C)ccc1F [Example 42, 5-(2-(((2S,3R)-1-amino-3-hydroxy-1-oxobutan-2-yl)amino)-2-oxoacetyl)-N-(4-fluoro-3-methylphenyl)-1,2,4-trimethyl-1H-pyrrole-3-carboxamide]",> 30,< 50
"Cc1cc(NC(=O)c2c(C)c(C(=O)C(=O)NC3(c4noc(C(F)F)n4)CCC3)n(C)c2C)ccc1F [Example 153, 5-(2-((1-(5-(difluoromethyl)-1,2,4-oxadiazol-3-yl)cyclobutyl)amino)-2-oxoacetyl)-N-(4-fluoro-3-methylphenyl)-1,2,4-trimethyl-1H-pyrrole-3-carboxamide]",5 to 30,< 50
"Cc1cc(NC(=O)c2c(C)c(C(=O)C(=O)Nc3ccc(C(F)(F)F)nc3)n(C)c2C)ccc1F [Example 264, N-(4-fluoro-3-methylphenyl)-1,2,4-trimethyl-5-(2-oxo-2-((6-(trifluoromethyl)pyridin-3-yl)amino)acetyl)-1H-pyrrole-3-carboxamide]",5 to 30,< 50
